Results on three compounds are retold here after ChEMBL document CHEMBL4382281, “ASK1: A Therapeutic Target for the Treatment of Multiple Diseases” (ACS Med Chem Lett, 2019).

The target of assay [1] is T1, Mitogen-activated protein kinase kinase kinase 5 (Homo sapiens, UniProt Q99683).
T1 sequence (Q99683 whole entry): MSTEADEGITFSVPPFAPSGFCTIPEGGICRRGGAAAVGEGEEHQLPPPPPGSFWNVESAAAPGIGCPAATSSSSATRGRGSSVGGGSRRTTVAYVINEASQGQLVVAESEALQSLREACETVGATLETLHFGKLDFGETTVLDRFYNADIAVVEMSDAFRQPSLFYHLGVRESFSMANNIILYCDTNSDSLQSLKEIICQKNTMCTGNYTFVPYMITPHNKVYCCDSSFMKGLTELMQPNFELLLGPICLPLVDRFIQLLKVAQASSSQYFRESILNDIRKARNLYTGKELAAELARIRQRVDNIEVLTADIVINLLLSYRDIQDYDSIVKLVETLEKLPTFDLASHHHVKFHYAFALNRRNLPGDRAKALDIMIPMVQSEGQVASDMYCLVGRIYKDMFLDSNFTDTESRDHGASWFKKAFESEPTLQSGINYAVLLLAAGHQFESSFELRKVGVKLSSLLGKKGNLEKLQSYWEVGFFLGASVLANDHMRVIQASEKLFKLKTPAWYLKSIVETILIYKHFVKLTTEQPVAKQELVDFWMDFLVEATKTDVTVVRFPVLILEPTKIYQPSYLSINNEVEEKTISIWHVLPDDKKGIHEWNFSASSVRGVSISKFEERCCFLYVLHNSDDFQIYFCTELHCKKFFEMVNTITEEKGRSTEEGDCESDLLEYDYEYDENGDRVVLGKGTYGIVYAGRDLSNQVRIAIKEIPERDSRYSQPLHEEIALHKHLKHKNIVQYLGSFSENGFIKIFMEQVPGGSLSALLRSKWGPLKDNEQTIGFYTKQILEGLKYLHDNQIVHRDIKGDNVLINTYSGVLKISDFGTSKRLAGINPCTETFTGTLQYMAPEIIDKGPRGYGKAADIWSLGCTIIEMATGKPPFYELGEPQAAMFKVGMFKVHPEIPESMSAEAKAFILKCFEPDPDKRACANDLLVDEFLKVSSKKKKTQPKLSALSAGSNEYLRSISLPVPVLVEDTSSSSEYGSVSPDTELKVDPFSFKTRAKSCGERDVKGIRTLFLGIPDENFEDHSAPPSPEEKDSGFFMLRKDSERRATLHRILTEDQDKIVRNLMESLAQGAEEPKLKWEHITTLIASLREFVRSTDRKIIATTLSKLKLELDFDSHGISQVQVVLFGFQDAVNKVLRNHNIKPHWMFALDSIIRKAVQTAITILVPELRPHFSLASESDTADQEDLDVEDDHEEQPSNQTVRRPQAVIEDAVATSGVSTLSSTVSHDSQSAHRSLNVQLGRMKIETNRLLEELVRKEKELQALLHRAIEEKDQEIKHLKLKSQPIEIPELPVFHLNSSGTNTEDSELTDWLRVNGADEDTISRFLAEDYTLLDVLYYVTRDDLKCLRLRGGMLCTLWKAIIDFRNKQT
Put plainly: Inhibition of recombinant V5-tagged ASK1 (unknown origin) expressed in HEK293 cells assessed as reduction in ASK1 autophosphorylation at T838 residue after 1 hr by MSD assay. In kind it is cell-based.

For assay [2], the target named is T1, Mitogen-activated protein kinase kinase kinase 5. Kind of assay: Inhibition of full-length human GST-tagged ASK1 expressed in baculovirus expression system using biotinylated STK Substrate 3 preincubated for 10 mins followed by ATP addition and measured after 5 hrs by TR-FRET assay.
Assay [3] has the same target. Put plainly: Inhibition of human ASK1 using MBP as substrate measured in presence of [gamma-33P]-ATP.

For orientation: IC50 means the concentration that inhibits the measured activity by half.

In the case of `Cc1ccc2c(c1)C(=O)Nc1cccc(n1)-c1nncn1CCCCO2`, the values for the IC50 in assay [1], in assay [2] and in assay [3] were ≤ 1 µM, ≤ 0.1 µM and ≤ 0.1 µM, respectively.

`O=C1Nc2cccc(n2)-c2nncn2C/C=C/COc2c(Br)cccc21`: the values for the IC50 in assay [1] and in assay [2] were > 10 µM and 0.1 to 1 µM, respectively.

For the compound `Cc1ncn(-c2ccc3c(c2)C(=O)Nc2cccc(n2)-c2nncn2CCCCO3)c1C`, the results for the IC50 in assay [1], in assay [2] and in assay [3] were ≤ 1 µM, ≤ 0.1 µM and ≤ 0.1 µM, respectively.
